Assay results taken from patent US9783536B2, “Nitrogen-containing heterocyclic compound or salt thereof” (FUJIFILM Corporation, priority 2013, dated 2017).
Like-named read-outs stand apart in the source and are kept apart here.

Experiments:
[1] = target: T1, GST fusion human ERK2 protein (Homo sapiens, UniProt P28482); assay: ERK2 enzyme assay (2); assay type: biochemical; settings: read-out: ERK2 enzyme inhibitory activity (2)
T1 construct: purchased Carna Biosciences, Inc; host or cells: E. coli expression system
In short: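 IC50 values come from mobility-shift measurement of phosphorylated versus unphosphorylated 5-FAM peptide substrate after EDTA quench. Beforehand, compound and 1.25 nmol/L E. coli-expressed GST–human ERK2 stood 15 min at room temperature (pH 7.5), then 1 mmol/L ATP and 4.25 μmol/L substrate (final) were added for 120 min at 25 °C.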

human PI3Kα protein = target: T2, human PI3Kα protein (Homo sapiens, UniProt P42336); assay: PI3Kα enzyme assay (ADP-Glo); assay type: biochemical; settings: read-out: PI3Kα enzyme inhibitory activity
T2 construct: purchased Carna Biosciences, Inc; host or cells: baculovirus expression system
In short: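 Biotinylated human PI3Kα (baculovirus-expressed, 4.5 nmol/L) pre-incubated 15 min with compound in Tris-HCl pH 7.5, MgCl2, BSA; reaction 60 min at 25° C with 50 μmol/L PIP2 and 100 μmol/L ATP final. ADP quantified by ADP-Glo luminescence; IC50 calculated.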

T1 sequence (P28482 whole entry, the tested form may be a part): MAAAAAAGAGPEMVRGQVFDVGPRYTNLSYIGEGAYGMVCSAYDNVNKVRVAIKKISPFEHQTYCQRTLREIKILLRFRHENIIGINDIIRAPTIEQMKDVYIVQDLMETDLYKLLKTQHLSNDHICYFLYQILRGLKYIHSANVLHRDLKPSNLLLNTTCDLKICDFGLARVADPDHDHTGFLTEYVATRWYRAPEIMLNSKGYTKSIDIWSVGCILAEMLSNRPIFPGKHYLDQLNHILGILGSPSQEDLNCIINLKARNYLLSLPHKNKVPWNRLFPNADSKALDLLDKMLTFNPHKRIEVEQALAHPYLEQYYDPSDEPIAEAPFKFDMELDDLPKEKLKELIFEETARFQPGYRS
T2 sequence (P42336 whole entry): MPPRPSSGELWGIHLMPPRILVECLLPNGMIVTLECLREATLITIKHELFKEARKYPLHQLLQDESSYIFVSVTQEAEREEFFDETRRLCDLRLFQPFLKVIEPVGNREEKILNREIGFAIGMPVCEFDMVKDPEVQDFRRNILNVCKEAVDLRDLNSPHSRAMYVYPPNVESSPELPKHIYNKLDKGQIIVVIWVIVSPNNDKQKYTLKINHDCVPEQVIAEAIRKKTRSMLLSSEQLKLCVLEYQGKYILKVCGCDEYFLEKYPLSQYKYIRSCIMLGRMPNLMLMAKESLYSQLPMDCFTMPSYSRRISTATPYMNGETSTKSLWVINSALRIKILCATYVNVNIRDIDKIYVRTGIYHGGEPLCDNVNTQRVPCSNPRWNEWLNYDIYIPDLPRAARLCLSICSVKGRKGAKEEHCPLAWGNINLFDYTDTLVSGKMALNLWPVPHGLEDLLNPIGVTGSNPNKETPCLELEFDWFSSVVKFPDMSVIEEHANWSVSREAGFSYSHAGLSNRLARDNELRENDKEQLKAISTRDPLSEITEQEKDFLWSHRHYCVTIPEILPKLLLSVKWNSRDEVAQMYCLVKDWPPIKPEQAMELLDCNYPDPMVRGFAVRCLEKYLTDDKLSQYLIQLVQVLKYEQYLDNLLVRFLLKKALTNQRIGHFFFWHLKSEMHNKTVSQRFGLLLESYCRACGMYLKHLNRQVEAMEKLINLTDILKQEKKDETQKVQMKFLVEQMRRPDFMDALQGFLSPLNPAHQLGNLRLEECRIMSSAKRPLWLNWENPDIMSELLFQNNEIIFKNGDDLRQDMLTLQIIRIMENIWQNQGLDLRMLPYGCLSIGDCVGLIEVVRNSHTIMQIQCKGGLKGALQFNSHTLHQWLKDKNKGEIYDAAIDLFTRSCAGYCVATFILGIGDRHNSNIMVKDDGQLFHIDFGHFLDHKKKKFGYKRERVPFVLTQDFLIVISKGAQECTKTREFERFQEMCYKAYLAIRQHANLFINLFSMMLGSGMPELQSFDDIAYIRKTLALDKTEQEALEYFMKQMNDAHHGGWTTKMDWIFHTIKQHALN
T2 sequence (P27986 whole entry partner): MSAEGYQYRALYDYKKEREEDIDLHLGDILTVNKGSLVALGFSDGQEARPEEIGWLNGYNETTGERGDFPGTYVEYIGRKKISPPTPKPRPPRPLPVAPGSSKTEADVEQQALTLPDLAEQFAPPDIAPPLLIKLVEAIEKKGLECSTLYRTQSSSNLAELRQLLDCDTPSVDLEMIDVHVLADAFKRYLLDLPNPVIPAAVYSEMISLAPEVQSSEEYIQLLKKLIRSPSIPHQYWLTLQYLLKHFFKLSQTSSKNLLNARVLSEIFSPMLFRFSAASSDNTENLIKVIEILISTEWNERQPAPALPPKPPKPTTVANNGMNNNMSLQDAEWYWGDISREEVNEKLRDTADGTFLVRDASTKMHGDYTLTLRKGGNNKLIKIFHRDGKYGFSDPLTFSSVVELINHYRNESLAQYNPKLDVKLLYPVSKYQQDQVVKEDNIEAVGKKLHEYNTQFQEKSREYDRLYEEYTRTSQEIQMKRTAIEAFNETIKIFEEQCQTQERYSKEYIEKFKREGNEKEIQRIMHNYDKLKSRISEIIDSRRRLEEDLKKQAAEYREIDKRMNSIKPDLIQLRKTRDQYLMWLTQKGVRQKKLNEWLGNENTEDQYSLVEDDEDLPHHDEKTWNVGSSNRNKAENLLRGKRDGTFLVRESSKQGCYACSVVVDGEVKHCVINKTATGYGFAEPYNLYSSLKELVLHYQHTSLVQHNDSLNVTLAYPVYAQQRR

Row | Structure (SMILES) | IC50 ([1]; ERK2 enzyme assay (2)) | IC50 (human PI3Kα protein) | IC50 [1]
1 | COC1(C)CN(c2cnc3ccc(Nc4cc(C(C)C)cnn4)nc3c2)C1 [Example 0859] | < 1000 nM | 1000 to 10000 nM | –
2 | CC(C)OC1CN(c2cnc3ccc(Nc4cc(C(C)C)cnn4)nc3c2)C1 [Example 0863] | < 1000 nM | 1000 to 10000 nM | –
3 | CC(=O)N1CCCC(Nc2cnc3ccc(Nc4cc(C(C)C)cnn4)nc3c2)C1 (stereo not shown) [Example 0541] | 1000 to 10000 nM | < 1000 nM | –
4 | COC(CCn1cc(-c2cnc3ccc(Nc4cc(C(C)C)cnn4)nc3c2)cn1)OC [Example 0646, 7-(1-(3,3-dimethoxypropyl)-1H-pyrazol-4-yl)-N-(5-isopropylpyridazin-3-yl)-1,5-naphthyridine-2-amine] | < 1000 nM | < 1000 nM | –
5 | CC(C)c1cnnc(Nc2ccc3ncc(Br)cc3n2)c1 [Example 0929, 7-bromo-N-(5-isopropylpyridazin-3-yl)-1,5-naphthyridine-2-amine] | – | 1000 to 10000 nM | < 1000 nM
6 | CC(C)c1cnnc(Nc2ccc3ncc(-c4cccnc4O)cc3n2)c1 [Example 0593] | < 1000 nM | 1000 to 10000 nM | –
7 | Cc1cc(-c2nn(C)cc2-c2cnc3ccc(Nc4cc(C(C)C)cnn4)nc3c2)cc(C)n1 [Example 0748, 7-(3-(2,6-Dimethylpyridin-4-yl)-1-methyl-1H-pyrazol-4-yl)-N-(5-isopropylpyridazin-3-yl)-1,5-naphthyridine-2-amine] | < 1000 nM | < 1000 nM | –
8 | CC(C)c1cnnc(Nc2ccc3nccc(-c4cnn(C)c4)c3n2)c1 [Example 0447, N-(5-isopropylpyridazin-3-yl)-8-(1-methyl-1H-pyrazol-4-yl)-1,5-naphthyridine-2-amine] | 1000 to 10000 nM | < 1000 nM | –

The next lines start with the values.

Row | IC50 ([1]; ERK2 enzyme assay (2)) | IC50 (human PI3Kα protein) | IC50 [1] | Structure (SMILES)
9 | 1000 to 10000 nM | 1000 to 10000 nM | – | CC(C)c1cnnc(Nc2ccc3ncc(N4CCN(C)CC4)cc3n2)c1 [Example 0842, N-(5-isopropylpyridazin-3-yl)-7-(4-methylpiperazin-1-yl)-1,5-naphthyridine-2-amine]
10 | < 1000 nM | < 1000 nM | – | CC(C)c1cnnc(Nc2ccc3ncc(-c4cnn(CCCN5CC(NC(=O)OC(C)(C)C)C5)c4)cc3n2)c1 [Example 0693]
11 | 1000 to 10000 nM | < 1000 nM | – | Cc1cnnc(Nc2ccc3nccc(-c4cnn(C)c4)c3n2)c1 [Example 0448, 8-(1-Methyl-1H-pyrazol-4-yl)-N-(5-methylpyridazin-3-yl)-1,5-naphthyridine-2-amine]
12 | < 1000 nM | < 1000 nM | – | CC(C)c1cnnc(Nc2ccc3ncc(-c4cnn(CC(F)CN5CCCC5)c4)cc3n2)c1 (stereo not shown) [Example 0727]
13 | < 1000 nM | < 1000 nM | – | CC(C)c1cnnc(Nc2ccc3ncc(-c4cnn(CCCN5CCC(F)(F)C5)c4)cc3n2)c1 [Example 0427]
14 | < 1000 nM | < 1000 nM | – | C=Cn1cc(-c2cnc3ccc(Nc4cc(C(C)C)cnn4)nc3c2)cn1 [Example 0610, N-(5-isopropylpyridazin-3-yl)-7-(1-vinyl-1H-pyrazol-4-yl)-1,5-naphthyridine-2-amine]
15 | < 1000 nM | < 1000 nM | – | CCn1cc(-c2cnc3ccc(Nc4cc(C(C)C)cnn4)nc3c2)cn1 [Example 0440, 7-(1-Ethyl-1H-pyrazol-4-yl)-N-(5-isopropylpyridazin-3-yl)-1,5-naphthyridine-2-amine]
16 | < 1000 nM | < 1000 nM | – | CC(C)c1cnnc(Nc2ccc3ncc(-c4cn(C)nc4-c4ccnnc4)cc3n2)c1 [Example 0843, N-(5-isopropylpyridazin-3-yl)-7-(1-methyl-3-(pyridazin-4-yl)-1H-pyrazol-4-yl)-1,5-naphthyridine-2-amine]
17 | – | < 1000 nM | < 1000 nM | CC(C)c1cnnc(Nc2ccc3ncc(-c4cn(C)nc4CN4CCOCC4)cc3n2)c1 [Example 0942, N-(5-isopropylpyridazin-3-yl)-7-(1-methyl-3-(morpholinomethyl)-1H-pyrazol-4-yl)-1,5-naphthyridine-2-amine]
